In publication PMC12214536 (Nature Communications, 2025):

Tested on: A. fumigatus OE::sltA
Assay type: cell-based, Aspergillus fumigatus

Substance	more tolerance of the sltA overexpression strain compared to wild-type [%]	susceptibility of the sltA overexpression strain compared to wild-type
colistin	15	–
caspofungin	–	comparable susceptibility to CAS
